pKi: −log10 of the molar value.
Target: T1, NIK (Homo sapiens, UniProt Q99558)
T1 construct: Both assays utilize a truncated form of NIK containing only the catalytic domain; made in house; host or cells: baculovirus expression system (insect cells implied)
Test: homogenous time resolved fluorescence (HTRF) assay for NIK Ki measurement
Format: biochemical
Settings: truncated NIK (catalytic domain only), autophosphorylation; 10 nM enzyme; 20, 100, 200 or 500 μM ATP; room temperature, 2 hours; read-out: Ki activity in the homogenous time resolved fluorescence (HTRF) assay for NIK

T1 sequence (Q99558 400-655 limits assumed): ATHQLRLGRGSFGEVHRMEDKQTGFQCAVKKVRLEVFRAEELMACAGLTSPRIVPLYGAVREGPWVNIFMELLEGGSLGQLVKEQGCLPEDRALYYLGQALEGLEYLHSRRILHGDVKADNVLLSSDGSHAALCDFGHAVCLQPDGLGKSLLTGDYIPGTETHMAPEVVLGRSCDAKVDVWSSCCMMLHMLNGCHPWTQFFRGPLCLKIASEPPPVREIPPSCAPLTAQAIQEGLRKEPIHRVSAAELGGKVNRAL

Row | pKi | SMILES
1 | 4.52 to 6.00 | OC1(C#Cc2ccc3ccn(-c4cc(Nc5ccccc5)ncn4)c3c2)CCCC1 [Example 257, 1-((1-(6-(phenylamino)-4-pyrimidinyl)-1H-indol-6-yl)ethynyl)cyclopentanol]
2 | > 6.00 | Nc1nccc(N2CCc3ccc(C#CC4(O)CCSC4)cc32)n1 (stereo not drawn) [Example 264, 3-((1-(2-amino-4-pyrimidinyl)-2,3-dihydro-tH-indol-6-yl)ethynyl)tetrahydro-3-thiopheneol]
3 | > 6.00 | Nc1ncc(OCc2cccnc2)c(-c2c[nH]c3ccc(C#CC4(O)CCCC4)cc23)n1 [Example 232, 1-((3-(2-Amino-5-(3-pyridinylmethoxy)-4-pyrimidinyl)-1H-indol-5-yl)ethynyl)cyclopentanol]
4 | > 6.00 | Cc1ccc(S(=O)(=O)n2nccc2C(C)(O)C#Cc2ccc3c(c2)N(c2ccnc(N)n2)CC3)cc1 (stereo not drawn) [Example 76, 4-(1-(2-Amino-4-pyrimidinyl)-2,3-dihydro-1H-indol-6-yl)-2-(1-((4-methylphenyl)sulfonyl)-1H-pyrazol-5-yl)-3-butyn-2-ol]
5 | > 6.00 | COc1ccc(C#C[C@@](C)(O)c2nccs2)cc1Nc1nc(N)ncc1Cl [Example 146, (R)-4-(3-(2-Amino-5-chloropyrimidin-4-ylamino)-4-methoxyphenyl)-2-(thiazol-2-yl)but-3-yn-2-ol]
6 | > 6.00 | CC(O)(C#Cc1ccc2c(c1)N(c1ccnc(N)n1)CC2)C1CCC1 (stereo not drawn) [Example 21, 4-(1-(2-aminopyrimidin-4-yl)indolin-6-yl)-2-cyclobutylbut-3-yn-2-ol]
7 | 4.52 to 6.00 | COCCOc1cnc(N)nc1-c1c[nH]c2ccc(C#CC(O)(c3cccc(F)c3)C(F)(F)F)cc12 (stereo not drawn) [Example 236, 4-(3-(2-Amino-5-(2-methoxyethoxy)-4-pyrimidinyl)-1H-indol-5-yl)-1,1,1-trifluoro-2-(3-fluorophenyl)-3-butyn-2-ol]
8 | 4.52 to 6.00 | CC(O)(C#Cc1cncc(C(=O)Nc2ccncn2)c1)c1nccs1 (stereo not drawn) [Example 168, 5-(3-Hydroxy-3-(thiazol-2-yl)but-1-ynyl)-N-(pyrimidin-4-yl)nicotinamide]
9 | > 6.00 | CC1(CCCO)CN(c2nc(N)ncc2Cl)c2cc(C#CC3(O)CCCC3)ccc21 (stereo not drawn) [Example 63, 1-((1-(2-amino-5-chloro-4-pyrimidinyl)-3-(3-hydroxypropyl)-3-methyl-2,3-dihydro-1H-indol-6-yl)ethynyl)cyclopentanol]
10 | > 6.00 | COCCOCCn1cc(-c2nc(N)ncc2F)c2cc(C#CC3(O)CCCC3)ccc21 [Example 133, 1-(2-(3-(2-amino-5-fluoropyrimidin-4-yl)-1-(2-(2-methoxyethoxy)ethyl)-1H-indol-5-yl)ethynyl)cyclopentanol]
11 | > 6.00 | COc1cc(C#CC2(O)CCCC2)cc2c1c(CO)cn2-c1nc(N)ncc1F [Example 103, 1-(2-(1-(2-amino-5-fluoropyrimidin-4-yl)-3-(hydroxymethyl)-4-methoxy-1H-indol-6-yl)ethynyl)cyclopentanol]
12 | > 6.00 | Nc1ncc(Cl)c(N2CC3(CS(=O)(=O)C3)c3ccc(C#CC4(O)CCCC4)cc32)n1 [Example 212, 1-((1-(2-Amino-5-chloro-4-pyrimidinyl)-1′,1′-dioxido-1,2-dihydrospiro[indole-3,3′-thietan]-6-yl)ethynyl)cyclopentanol]
13 | > 6.00 | COCCOCCn1cc(-c2nc(N)ncc2Cl)c2cc(C#CC3(O)CCCC3)ccc21 [Example 124, 1-(2-(3-(2-amino-5-chloropyrimidin-4-yl)-1-(2-(2-methoxyethoxy)ethyl)-1H-indol-5-yl)ethynyl)cyclopentanol]
14 | > 6.00 | Cc1cc([C@](C)(O)C#Cc2ccc3c(c2)N(c2nc(N)ncc2Cl)CC32CCOCC2)no1 (single isomer, unassigned) [Example 211]
15 | > 6.00 | Nc1ncc2c(n1)-c1c(nc3ccc(C#CC4(O)CCCC4)cn13)CCC2 [Example 249, 1-((2-amino-6,7-dihydro-5H-pyrido[1″,2″:1′,2′]imidazo[4′,′:6,7]cyclohepta[1,2-d]pyrimidin-11-yl)ethynyl)cyclopentanol]
16 | > 6.00 | Nc1ncc(Cl)c(-c2cn(C(=O)C3CC3)c3ccc(C#CC4(O)CCCC4)cc23)n1 [Example 121, (3-(2-amino-5-chloropyrimidin-4-yl)-5-(2-(1-hydroxycyclopentyl)ethynyl)-1H-indol-1-yl)(cyclopropyl)methanone]
17 | > 6.00 | CN1CC[C@]2(C1)CN(c1nc(N)ncc1Cl)c1cc(C#C[C@@](C)(O)c3nccs3)ccc12 (relative stereo) [Example 197, (2R)-4-((3S*)-1-(2-Amino-5-chloro-4-pyrimidinyl)-1′-methyl-1,2-dihydrospiro[indole-3,3′-pyrrolidin]-6-yl)-2-(1,3-thiazol-2-yl)-3-butyn-2-ol]
18 | > 6.00 | CC(C)(O)C#Cc1ccc2c(c1)N(c1ccnc(N)n1)CC2 [Example 271, 4-(1-(2-Amino-4-pyrimidinyl)-2,3-dihydro-1H-indol-6-yl)-2-methyl-3-butyn-2-ol]
19 | 4.52 to 6.00 | CC(O)(C#Cc1ccc2c(c1)N(c1nc(N)ncc1Cl)CC2)c1nc(CO)cs1 (stereo not drawn) [Example 35, 4-(1-(2-amino-5-chloropyrimidin-4-yl)indolin-6-yl)-2-(4-(hydroxymethyl)thiazol-2-yl)but-3-yn-2-ol]
20 | > 6.00 | CN1CCC2(C1)CN(c1nc(N)nc3[nH]cnc13)c1cc(C#CC3(O)CCCC3)ccc12 (stereo not drawn) [Example 191, 1-((1-(2-Amino-9H-purin-6-yl)-1′-methyl-1,2-dihydrospiro[indole-3,3′-pyrrolidin]-6-yl)ethynyl)cyclopentanol]
21 | > 6.00 | CC(O)(C#Cc1ccc2c(c1)N(c1ccncc1Cl)CC2(C)C)c1ncco1 (stereo not drawn) [Example 314, 4-(1-(3-chloro-4-pyridinyl)-3,3-dimethyl-2,3-dihydro-1H-indol-6-yl)-2-(1,3-oxazol-2-yl)-3-butyn-2-ol]
22 | > 6.00 | COCCN1CC2(C1)CN(c1nc(N)ncc1Cl)c1cc(C#C[C@@](C)(O)c3nccs3)ccc12 [Example 183, (2R)-4-(1′-(2-amino-5-chloropyrimidin-4-yl)-1-(2-methoxyethyl)spiro[azetidine-3,3′-indoline]-6′-yl)-2-(thiazol-2-yl)but-3-yn-2-ol]
23 | > 6.00 | COc1ccc(C#CC2(O)CCCC2)cc1Nc1nc(N)ncc1Cl [Example 145, 1-((3-((2-amino-5-chloro-4-pyrimidinyl)amino)-4-(methyloxy)-phenyl)ethynyl)-cyclopentanol]
24 | > 6.00 | Cc1cnc(C(C)(O)C#Cc2ccc3c(c2)N(c2nc(N)ncc2Cl)CC32CN(C)C2)s1 (stereo not drawn) [Example 301, 4-(1′-(2-Amino-5-chloro-4-pyrimidinyl)-1-methyl-1′,2′-dihydrospiro[azetidine-3,3′-indol]-6′-yl)-2-(5-methyl-1,3-thiazol-2-yl)-3-butyn-2-ol]
25 | > 6.00 | Cc1noc(C(C)(O)C#Cc2ccc3c(c2)N(c2nc(N)ncc2Cl)CC3)n1 (stereo not drawn) [Example 1, 4-(1-(2-amino-5-chloropyrimidin-4-yl)indolin-6-yl)-2-(3-methyl-1,2,4-oxadiazol-5-yl)but-3-yn-2-ol]
26 | 4.52 to 6.00 | Nc1ncc(OCCN2CCOCC2)c(-c2c[nH]c3ccc(C#CC4(O)CCCC4)cc23)n1 [Example 230, 1-((3-(2-Amino-5-(2-(4-morpholinyl)ethoxy)-4-pyrimidinyl)-1H-indol-5-yl)ethynyl)cyclopentanol]
27 | > 6.00 | Cc1cc(C(C)(O)C#Cc2ccc3c(c2)N(c2ccnc(N)n2)CC3)no1 (stereo not drawn) [Example 20, 4-(1-(2-aminopyrimidin-4-yl)indolin-6-yl)-2-(5-methylisoxazol-3-yl)but-3-yn-2-ol]

Reference: patent US20110086834A1, “ALKYNYL ALCOHOLS AS KINASE INHIBITORS” (AMGEN INC., priority 2008, published 2011)
